Reference: PMC10648349, “Aromatic Diboronic Acids as Effective KPC/AmpC Inhibitors” (Molecules, 2023)
Converted amounts (≈) assume the structure as drawn.

Key:
[1] = system: CRE strains; settings: cited from earlier work
[2] = system: E. faecalis ATCC 29212; experiment: direct antimicrobial activity (disc-diffusion, MIC, MBC); format: cell-based; settings: Enterococcus faecalis, ATCC29212
Method in brief: (§1)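 Diboronic acids (DMSO solutions) at 0.4 mg per disc were used for diffusion testing. Dilution endpoints were MIC, MBC and MFC, per CLSI and EUCAST recommendations.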

[3] = system: E. faecium ATCC 6057; experiment: as above; format: cell-based; settings: Enterococcus faecium, ATCC6057
Method in brief: as §1

[4] = system: S. aureus ATCC 43300 MRSA; experiment: as above; format: cell-based; settings: Staphylococcus aureus
Method in brief: as §1

[5] = system: S. aureus ATCC 6538P; experiment: as above; format: cell-based; settings: Staphylococcus aureus, ATCC6538P
Method in brief: as §1

[6] = system: S. epidermidis ATCC 12228; experiment: as above; format: cell-based; settings: Staphylococcus epidermidis, ATCC12228
Method in brief: as §1

[7] = system: B. subtilis ATCC 6633; experiment: direct antimicrobial activity (disc-diffusion); format: cell-based; settings: Bacillus subtilis, ATCC6633; 0.4 mg per disc, 9 mm disc (linezolid 0.03 mg, 6 mm disc); - no zone; read-out: Diameter of inhibition zone
Method: (§2) Direct antimicrobial activity against Gram-negative and Gram-positive bacterial strains, as well as against yeast, was examined as previously described by the disc-diffusion test, the MIC determination assay, the MBC (for bacteria), and the MFC (for yeasts) determination tests. All the above-mentioned tests were performed according to EUCAST [71, 72] and CLSI [73, 74, 75, 76, 77] recommendations. The following reference agents were used: nitrofurantoin (for Gram-negative rods), linezolid (for Gram-positive bacteria), and fluconazole (in the case of fungi). The new aromatic diboronic acids were dissolved in DMSO (Sigma, St. Louis, MO, USA). In the disc-diffusion test, the concentration of new agents was 0.4 mg per disc.

[8] = system: C. parapsilosis ATCC 22019; experiment: antifungal activity (disc-diffusion, MIC, MFC); format: cell-based, Candida parapsilosis; settings: Lodderomyces parapsilosis, ATCC22019
Method in brief: as §1

[9] = system: C. guilliermondii IBA 155; experiment: antifungal activity (disc-diffusion, MIC, MFC); format: cell-based, Candida guilliermondii; settings: Meyerozyma guilliermondii, IBA155
Method in brief: as §1

[10] = system: C. krusei ATCC 6258; experiment: antifungal activity (disc-diffusion, MIC, MFC); format: cell-based, Candida krusei; settings: Pichia kudriavzevii, ATCC6258
Method in brief: as §1

[11] = system: C. albicans ATCC 90028; experiment: antifungal activity (disc-diffusion, MIC, MFC); format: cell-based; settings: Candida albicans, ATCC90028
Method in brief: as §1

[12] = system: C. tropicalis ATCC 750; experiment: antifungal activity (disc-diffusion, MIC, MFC); format: cell-based; settings: Candida tropicalis, ATCC750
Method in brief: as §1

[13] = system: C. tropicalis IBA 171; experiment: antifungal activity (disc-diffusion, MIC, MFC); format: cell-based; settings: Candida tropicalis, IBA171
Method in brief: as §1

[14] = system: S. cerevisiae ATCC 9763; experiment: antifungal activity (disc-diffusion, MIC, MFC); format: cell-based; settings: Saccharomyces cerevisiae, ATCC9763
Method in brief: as §1

[15] = system: Gram-negative rods (except P. aeruginosa); experiment: direct antimicrobial activity, MIC; format: cell-based
Method: as §2

[16] = system: K. pneumoniae ATCC 700603 ESBL(+); experiment: screening test of direct antimicrobial activity (STDA), disc-diffusion; format: cell-based; settings: Klebsiella pneumoniae, ATCC700603; 0.3 mg per disc; - no zone; read-out: Diameter of inhibition zone around disc with tested agent
Method: (§3) Prior to combination disc tests, screening tests of direct antimicrobial activity (STDA) of the tested agent against β-lactamase-producing strains were performed by the disc-diffusion method. Discs with 0.3 mg, 0.1 mg, and 0.03 mg of each agent were examined. The highest amount of an agent that caused no effect on bacterial growth was used in further experiments.

[17] = system: P. aeruginosa MUW 700 AmpC(+); experiment: as above; format: cell-based; settings: Pseudomonas aeruginosa; 0.3 mg per disc; - no zone; read-out: Diameter of inhibition zone around disc with tested agent
Method: as §3

[18] = MTT-based viability assay; format: cell-based; settings: human, MRC-5 human fibroblasts, 72 h, read-out: Viability of MRC-5 cells (% of viable cells ± SD)
Method in brief: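 Percent viable cells relative to control, measured in triplicate by MTT read-out at 570 nm. Cells: MRC-5 human fibroblasts cultured at 37 °C, 5% CO2 in MEME plus 10% FBS.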

[19] = system: Gram-positive strains; experiment: direct antimicrobial activity, MIC; format: cell-based
Method: as §2, with “disc. Depending on the solubility, the MIC and MBC/MFC values were determined up to 100 mg/L for 1k, up to 200 mg/L for 7c, and up to 400 mg/L for the remaining compounds: 1a–1j, 2a–2g, 3a–3f, 4a–4b, 5a–5c, 6a and 7a–7b.” for “disc.”

[20] = system: K. pneumoniae ATCC BAA 1705 KPC-2-positive; experiment: combination disc test CDT-KPC; format: cell-based; settings: Klebsiella pneumoniae, BAA1705; meropenem 10 µg per disc, 6 mm disc; read-out: Diameter of inhibition zone, MEM-10 disc without agent
[21] = system: E. coli 76 KPC-2-positive; experiment: checkerboard microdilution, antibiotic plus tested agent; format: cell-based, Escherichia coli; settings: Escherichia coli; read-out: MIC of meropenem alone
Method: (§4) To examine the ability of tested agents to inhibit various carbapenemases and AmpC-enzymes, their synergy with antibiotics against β-lactamase-producing strains was assessed by checkerboard microdilution assay, with slight modification. Checkerboards were prepared in microtiter plates, with seven two-fold dilutions of β-lactams (1–64 mg/L) in the rows and three two-fold dilutions of tested agents and PBA (4–16 mg/L) in the columns. Tested agents’ concentrations were limited to the concentrations at which the newest commercially available BLIs (vaborbactam, relebactam, and avibactam) are used in susceptibility testing. Plates were inoculated and incubated as in the MIC microdilution assay. Parallel, MICs of tested agents and PBA alone were determined by the microdilution assay. Following the incubation, antibiotic MICs in the presence of each agent’s concentration were determined. Moreover, for the first well without growth found in each checkerboard row and column along the growth/non-growth interface, the fractional inhibitory concentration index (FICI) was calculated using the formula below:FICI = [(MIC of antibiotic in combination)/(MIC of antibiotic alone)] + [(MIC of the tested agent in combination)/(MIC of tested agent alone)].
(§5) For calculations, all off-scale MICs were converted to the next-highest doubling concentration. Subsequently, both the average and the lowest FICI were interpreted. The interpretation was as follows: FICI ≤ 0.5, synergy; 0.5 < FICI ≤ 4, indifference and FICI > 4, antagonism. Primarily, examined combinations consisted of meropenem (Pol-Aura, Morag, Poland) plus tested agents against carbapenemases-producing strains and ceftazidime (Pol-Aura, Morag, Poland) plus tested agents against AmpC-producing strains. For agents that reduced meropenem MIC at least 4-fold for at least two tested strains, similar assays were performed with imipenem (Pol-Aura, Morag, Poland) and ertapenem (Pol-Aura, Morag, Poland).

[22] = system: K. pneumoniae 81 KPC-3-positive; experiment: as above; format: cell-based, Klebsiella pneumoniae; settings: Klebsiella pneumoniae; read-out: MIC of meropenem alone
Method: as §4, §5

[23] = system: K. pneumoniae 83 KPC-3-positive, CTX-M-3-positive; experiment: as above; format: cell-based, Klebsiella pneumoniae; settings: Klebsiella pneumoniae; read-out: MIC of meropenem alone
Method: as §4, §5

[24] = system: K. pneumoniae ATCC BAA-1705 KPC-2-positive; experiment: as above; format: cell-based, Klebsiella pneumoniae; settings: Klebsiella pneumoniae, ATCCBAA1705; read-out: MIC of meropenem alone
Method: as §4, §5

[25] = system: P. aeruginosa 1204 VIM(+); experiment: as above; format: cell-based; settings: Pseudomonas aeruginosa; read-out: MIC of meropenem alone
Method: as §4
For calculations, all off-scale MICs were converted to the next-highest doubling concentration. […]

[26] = system: E. coli 82 TR(pl 81), transformant carrying blaKPC-3; experiment: whole cell assay, meropenem MIC with tested agent; format: cell-based, Escherichia coli; settings: Escherichia coli, read-out: MIC of meropenem alone
Method: as §4

[27] = system: E. coli DH5α; experiment: whole cell assay, meropenem MIC with tested agent; format: cell-based, Escherichia coli; settings: Escherichia coli; read-out: MIC of meropenem alone
Method: as §4

[28] = 0.4 mg per disc, 9 mm disc (linezolid 0.03 mg, 6 mm disc), - no zone, read-out: Diameter of inhibition zone
[29] = 0.4 mg per disc, 9 mm disc (fluconazole 0.025 mg, 6 mm disc), - no zone, read-out: Diameter of inhibition zone

## O=C(O)c1c(F)ccc2c1OB(O)[C@@H]1C[C@H]21 [xeruborbactam]
[1]
  MIC: 16 µg/mL (≈ 72.1 µM)

## OB(O)c1cc(I)c(B(O)O)cc1I [1j]
[2]
  MIC: 400 µg/mL (≈ 958 µM)
[3]
  MIC: 400 µg/mL (≈ 958 µM)
[4]
  MIC: 50 µg/mL (≈ 120 µM)
[4]; [28]
  zone of inhibition at 0.4 mg/disc: 21 mm
[5]
  MIC: 50 µg/mL (≈ 120 µM)
[5]; [28]
  zone of inhibition at 0.4 mg/disc: 19 mm
[6]
  MIC: 50 µg/mL (≈ 120 µM)
[6]; [28]
  zone of inhibition at 0.4 mg/disc: 25 mm
[7]
  zone of inhibition at 0.4 mg/disc: 20 mm
[8]; [29]
  zone of inhibition at 0.4 mg/disc: 15 mm
[8]; fluconazole by Etest
  MIC: > 400 µg/mL
[9]; [29]
  zone of inhibition at 0.4 mg/disc: 30 mm
[9]; fluconazole by Etest
  MIC: 400 µg/mL (≈ 958 µM)
[10]; [29]
  zone of inhibition at 0.4 mg/disc: 23 mm
[10]; fluconazole by Etest
  MIC: 400 µg/mL (≈ 958 µM)
[11]; [29]
  zone of inhibition at 0.4 mg/disc: 24 mm
[11]; fluconazole by Etest
  MIC: 200 µg/mL (≈ 479 µM)
[12]; [29]
  zone of inhibition at 0.4 mg/disc: 17 mm
[12]; fluconazole by Etest
  MIC: > 400 µg/mL
[13]; [29]
  zone of inhibition at 0.4 mg/disc: 15 mm
[13]; fluconazole by Etest
  MIC: > 400 µg/mL
[14]; [29]
  zone of inhibition at 0.4 mg/disc: 20 mm
[14]; fluconazole by Etest
  MIC: > 400 µg/mL
[15]
  MIC: 50 to 400 µg/mL (≈ 120 to 958 µM)
[16]
  zone of inhibition at 300 µg/disc: 11 mm
[17]
  zone of inhibition at 300 µg/disc: 14 mm
[18]; 12.5 mg/L
  viability at 72 h, 12.5 mg/L: 125 ± 2.8%
[18]; 25 mg/L
  viability at 72 h, 25 mg/L: 117 ± 1.2%
[18]; 50 mg/L
  viability at 72 h, 50 mg/L: 88.6 ± 3.5%
[19]; enterococci
  MIC: 100 to 400 µg/mL (≈ 239 to 958 µM)
[19]; staphylococci
  MIC: 12.5 to 50 µg/mL (≈ 29.9 to 120 µM)

## C[C@@H](O)[C@H]1C(=O)N2C(C(=O)O)=C(S[C@@H]3CN[C@H](C(=O)N(C)C)C3)[C@H](C)[C@H]12 [MEM, meropenem, reference compound]
[20]
  zone of inhibition at 10 µg/disc: 6 mm
[21]
  MIC: 64 µg/mL
[22]
  MIC: 16 µg/mL
[23]
  MIC: 32 µg/mL
[24]
  MIC: 32 µg/mL
[25]
  MIC: 64 µg/mL
[26]
  MIC: 2 µg/mL
[27]
  MIC: 0.016 µg/mL
